System in the first data set: not given
Assay: not given
Conditions: not given
Regarding `Cc1ccc(-c2nc(-c3ccc(S(=O)(=O)N[C@@H](C(=O)O)C(C)C)cc3)no2)cc1` [Compound A-1], the melting point was in the range of 208 to 209 °C.

The target in another data set is T1, MMP-2 (Homo sapiens, UniProt P08253).
T1 construct: purchased Calbiochem-Novabiochem International, Inc
T1 sequence (P08253 110-660): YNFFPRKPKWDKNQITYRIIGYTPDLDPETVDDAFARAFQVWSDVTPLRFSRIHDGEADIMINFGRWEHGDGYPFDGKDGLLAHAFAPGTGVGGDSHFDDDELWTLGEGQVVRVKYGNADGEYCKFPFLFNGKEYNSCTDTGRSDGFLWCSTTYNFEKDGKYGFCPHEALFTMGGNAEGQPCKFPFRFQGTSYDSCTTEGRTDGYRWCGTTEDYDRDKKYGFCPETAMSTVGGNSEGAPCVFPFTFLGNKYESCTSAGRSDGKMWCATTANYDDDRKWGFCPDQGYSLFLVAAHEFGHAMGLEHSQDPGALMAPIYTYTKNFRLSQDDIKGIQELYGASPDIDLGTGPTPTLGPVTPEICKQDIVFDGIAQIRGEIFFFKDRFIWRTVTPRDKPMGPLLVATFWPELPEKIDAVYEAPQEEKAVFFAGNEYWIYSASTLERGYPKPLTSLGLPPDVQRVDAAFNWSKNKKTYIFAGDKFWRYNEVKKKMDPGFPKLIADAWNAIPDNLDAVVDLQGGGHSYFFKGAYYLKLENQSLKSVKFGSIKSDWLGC
In words: Assay for inhibitory activities on MMP-2 (fluorogenic coumarin-labelled peptide substrate). Type of data set: biochemical. The note with it: MMP-2 purchased from Calbiochem-Novabiochem; substrate MOCAc-Pro-Leu-Gly-Leu-A2Pr(DNP)-Ala-Arg-NH2. How it is done:
MMP-2 was purchased from Calbiochem-Novabiochem International, Inc.
The enzymatic activity on MMP-2 was analyzed by the method described in “C. Graham Knight, Frances Willenbrock and Gillian Murphy: A novel coumarin-labelled peptide for sensitive continuous assays of the matrix metalloproteinases: FEBS LETT., 296, (1992), 263-266”. The substrate: MOCAc-Pro-Leu-Gly-Leu-A2Pr(DNP)-Ala-Arg-NH2 was purchased from Peptide Institute, Inc., Osaka, Japan.
The measurement of the inhibitory activities (IC50) was carried out by the following four methods;
A) Reaction with substrate, enzyme (MMPs) and inhibitor
B) Reaction with substrate and inhibitor, without enzyme
C) Reaction with substrate and enzyme (MMPs), without inhibitor
D) Reaction with substrate only
IC50 values were calculated by using the following formula and each fluorescence values of above four methods (A to D).
IC50 means the concentration required to inhibit 50% of the enzyme activity.
`Cc1ccc(-c2nc(-c3ccc(S(=O)(=O)N[C@@H](C(=O)O)C(C)C)cc3)no2)cc1` [Compound A-1] showed an IC50 of 4.62 nM. In other words, the single-digit nanomolar range.

With `CCc1ccc(-c2nc(-c3ccc(S(=O)(=O)N[C@H](Cc4c[nH]c5ccccc45)C(=O)O)cc3)no2)cc1` [Compound A-64], half-maximal inhibition (IC50) required 1.39 nM. `CCc1ccc(-c2nc(-c3ccc(S(=O)(=O)N[C@@H](C(=O)O)C(C)C)cc3)no2)cc1` [Compound A-3]: the IC50 amounted to 1.24 nM.

Compound `CCc1ccc(-c2nc(-c3ccc(S(=O)(=O)N[C@H](Cc4c[nH]c5ccccc45)C(=O)O)s3)no2)cc1` [Compound B-13] returned an IC50 of 4.08 nM. Same read-out and setting: in the case of `CCc1ccc(-c2nc(-c3ccc(S(=O)(=O)N[C@H](Cc4ccccc4)C(=O)O)cc3)no2)cc1` [Compound A-31] it was 4.98 nM. On the same count and under the same terms, in the case of `Cc1ccc(-c2nc(-c3ccc(S(=O)(=O)NC(C(=O)O)C(C)C)cc3)no2)cc1` (stereo not shown) [Compound A-19] it was 114 nM; in that of `CCc1ccc(-c2nc(-c3ccc(S(=O)(=O)N[C@H](C)C(=O)O)s3)no2)cc1` [Compound B-8], 2.9 nM; in that of `O=C(O)[C@@H](Cc1ccccc1)NS(=O)(=O)c1ccc(-c2noc(-c3cccnc3)n2)cc1` [Compound A-43], 171 nM. On the same count and under the same terms, the value for `O=C(O)[C@@H](Cc1ccccc1)NS(=O)(=O)c1ccc(-c2noc(-c3ccco3)n2)cc1` [Compound A-42] was 47 nM. In turn, `CCCc1ccc(-c2nc(-c3ccc(S(=O)(=O)NCC(=O)O)cc3)no2)cc1` [Compound A-61] showed an IC50 of 15.7 nM. On the same count and under the same terms, in the case of `CCCc1ccc(-c2nc(-c3ccc(S(=O)(=O)N[C@H](Cc4ccccc4)C(=O)O)s3)no2)cc1` [Compound B-5] it was 36.1 nM; in that of `CC(C)c1ccc(-c2nc(-c3ccc(S(=O)(=O)NCC(=O)O)cc3)no2)cc1` [Compound A-60], 14.3 nM; in that of `CCc1ccc(-c2nc(-c3ccc(S(=O)(=O)N[C@H](Cc4ccccc4)C(=O)O)s3)no2)cc1` [Compound B-4], 17.8 nM. Still for that read-out and setting: the value for `C[C@@H](NS(=O)(=O)c1ccc(-c2noc(-c3ccc(Cl)s3)n2)cc1)C(=O)O` [Compound A-54] was 12.4 nM; that for `C[C@@H](NS(=O)(=O)c1ccc(-c2noc(-c3ccccn3)n2)s1)C(=O)O` [Compound B-11] was 614 nM; that for `O=C(O)CNS(=O)(=O)c1ccc(-c2noc(-c3ccc(Cl)cc3)n2)cc1` [Compound A-13] was 85.2 nM.

`Cc1ccc(-c2nc(-c3ccc(S(=O)(=O)N[C@H](C)C(=O)O)cc3)no2)s1` [Compound A-53] showed an IC50 of 8.74 nM. Same read-out and setting: the value for `COc1ccc(-c2nc(-c3ccc(S(=O)(=O)N[C@@H](Cc4ccccc4)C(=O)O)cc3)no2)cc1OC` [Compound A-38] was 506 nM.

Values taken from patent US6495578B1, “Sulfonamide derivatives having oxadiazole rings” (Shionogi & Co., Ltd., priority 1999, dated 2002).
